Measured values: patent publication US20090142811A1, “Discovery, Cloning and Purification of Thermococccus sp. (Strain 9 Degrees N-7) Dna Ligase” (New England Biolabs, Inc., priority 2005, published 2009)

Molecular target: T1, Thermococcus sp. (strain 9° N-7) DNA ligase, clone B2, SEQ ID NO:15 (Thermococcus nautili, UniProt W8P6M3)
T1 construct: E. coli BL21(DE3)-RIL; purified
T1 sequence (W8P6M3 with tags, fused parts or gaps): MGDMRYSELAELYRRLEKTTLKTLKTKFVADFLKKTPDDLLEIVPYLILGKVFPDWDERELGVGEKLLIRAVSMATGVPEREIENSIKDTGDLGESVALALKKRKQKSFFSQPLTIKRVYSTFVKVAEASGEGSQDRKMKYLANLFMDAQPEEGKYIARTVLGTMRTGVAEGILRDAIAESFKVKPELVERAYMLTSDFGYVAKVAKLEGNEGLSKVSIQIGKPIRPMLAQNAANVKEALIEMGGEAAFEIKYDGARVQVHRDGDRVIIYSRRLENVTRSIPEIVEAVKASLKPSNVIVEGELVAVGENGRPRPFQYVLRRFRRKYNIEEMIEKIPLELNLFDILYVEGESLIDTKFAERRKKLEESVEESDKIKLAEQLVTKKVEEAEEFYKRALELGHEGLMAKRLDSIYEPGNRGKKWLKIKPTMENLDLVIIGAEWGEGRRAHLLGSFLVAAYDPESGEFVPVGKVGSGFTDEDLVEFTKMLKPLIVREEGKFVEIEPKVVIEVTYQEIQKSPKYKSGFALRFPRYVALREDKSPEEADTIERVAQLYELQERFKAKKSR
Assay: Km for ATP of purified Thermococcus sp. (strain 9° N-7) DNA ligase (ligation of lambda DNA)
Type: biochemical
Conditions: typical assay: predigested lambda DNA substrate, 45° C.; recommended 10 mM Tris-HCl pH 7.5, 2.5 mM MgCl2, 2.5 mM DTT
Protocol: The recommended reaction conditions are:
The typical substrate for assaying activity at 45° C. is lambda DNA. Appropriately digested lambda DNA can reveal the state of ligation of the 12-base extension at the termini of lambda DNA. We typically used either a HindIII or BstEII predigested lambda DNA. Analysis of the ligation was performed on agarose gel electrophoresis.

For Nc1ncnc2c1ncn2[C@@H]1O[C@H](COP(=O)(O)OP(=O)(O)OP(=O)(O)O)[C@@H](O)[C@H]1O [ATP], the Km was under 100 µM.
